Test results published in patent publication US20170095578A1, “CT SCANS USING GADOLINIUM-BASED CONTRAST AGENT” (UNIVERSITY OF MASSACHUSETTS MEDICAL SCHOOL, priority 2014, published 2017).

Legend:
[1] = gadoxetate disodium-enhanced MRI of the same patient; format: in vivo, human; details: MRI 20 minutes following intravenous administration
Experimental: (§1) A patient was undergoing evaluation for living liver donation.
FIG. 7B is a gadoxetate disodium-enhanced MRI image of the same patient. […] The MRI of FIG. 7B was obtained 20 minutes following intravenous administration of gadoxetate disodium.

[2] = gadoxetate disodium-enhanced CT scan of a human patient; format: in vivo
Experimental: as §1
FIG. 7A is an enhanced CT scan image of their liver using gadoxetate disodium as a contract agent according to principles of the invention. […] In this particular patient the CT scan was obtained 99 minutes after the gadoxetate disodium-enhanced MRI shown in FIG. 7B, a relatively long interval to image gallbladder filling. A better contrast resolution is expected when using shorter interval. The highest concentration of contrast within the gallbladder, and therefore the best contrast resolution, is expected between 30 to 60 minutes from the time of intravenous injection of contrast.
The CT scan technique used included a slice thickness of 4.00 mm, and a field of view of 283.0 mm. The x-ray radiation was generated using 120 kV and a current of 182 mA, with a tube current of 182 mA and tube current-time product of 213 mAs.

Q: Which results are given for `CCOc1ccc(CC(CN(CCN(CC(=O)[O-])CC(=O)[O-])CC(=O)[O-])N(CC(=O)[O-])CC(=O)[O-])cc1.[Gd+3].[Na+].[Na+]` (stereo not drawn) [gadoxetate disodium, Gadoxetate disodium]?
A: visualization of excreted contrast in the gallbladder on MRI [1]: excreted contrast within the gallbladder lumen; gallbladder opacification under CT imaging conditions ([2]; following intravenous injection): clearly demonstrates gallbladder opacification; visualization of excreted hepatobiliary contrast in the gallbladder on CT ([2]; patient, arterial phase CT at 120 kV, 182 mA, 99 minutes after the gadoxetate disodium-enhanced MRI): anti-dependant hyperdensity within the gallbladder fundus
